Assay results: patent US11014941B2, “Pyrrolopyrimidine derivatives useful as inhibitors of influenza virus replication” (priority 2017, dated 2021)

Molecular target: Influenza PB2 (Influenza A virus, UniProt P03428)
Assay: biochemical
Type: binding
Conditions: read-out: Influenza PB2 affinity, IC50

Sequence of Influenza PB2 (P03428 whole entry, looked up): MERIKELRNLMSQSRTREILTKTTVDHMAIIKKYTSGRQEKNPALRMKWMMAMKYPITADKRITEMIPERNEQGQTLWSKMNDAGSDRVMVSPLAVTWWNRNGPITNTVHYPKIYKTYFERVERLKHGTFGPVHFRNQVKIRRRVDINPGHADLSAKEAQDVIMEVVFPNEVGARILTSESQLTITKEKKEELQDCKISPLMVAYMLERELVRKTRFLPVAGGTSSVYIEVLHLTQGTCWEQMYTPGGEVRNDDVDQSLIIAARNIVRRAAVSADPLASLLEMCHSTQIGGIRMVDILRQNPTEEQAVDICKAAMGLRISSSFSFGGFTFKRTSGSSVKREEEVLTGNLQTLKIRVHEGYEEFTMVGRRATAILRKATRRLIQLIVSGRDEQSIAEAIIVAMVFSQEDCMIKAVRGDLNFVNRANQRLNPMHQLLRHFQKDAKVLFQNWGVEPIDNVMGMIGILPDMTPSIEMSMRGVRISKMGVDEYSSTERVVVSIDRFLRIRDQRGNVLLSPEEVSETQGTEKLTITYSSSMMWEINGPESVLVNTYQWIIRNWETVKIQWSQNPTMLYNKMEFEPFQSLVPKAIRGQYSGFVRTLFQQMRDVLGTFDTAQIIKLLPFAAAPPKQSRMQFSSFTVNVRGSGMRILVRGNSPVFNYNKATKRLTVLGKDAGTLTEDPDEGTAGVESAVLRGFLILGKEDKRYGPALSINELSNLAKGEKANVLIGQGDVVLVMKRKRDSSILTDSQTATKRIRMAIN

| SMILES | IC50 [µM] |
| --- | --- |
| O=C(O)[C@H]1C2CCC(CC2)C1n1cc(Cl)c2cnc(-c3c[nH]c4ncc(F)cc34)nc21 (single isomer, unassigned) [Compound B132] | < 1 |
| CNC(=O)NCCn1cc(-c2c[nH]c3ncc(F)cc23)c2cncnc21 [Compound C14] | > 100 |
| O=C(O)[C@@H]1C2CCC(CC2)C1n1cc(Cl)c2cnc(-c3c[nH]c4ncc(Cl)cc34)nc21 (single isomer, unassigned) [Compound B136] | 1 to 10 |
| CC(C)(C)OC(=O)N1CCC(Cn2cc(F)c3cnc(-c4c[nH]c5ncc(F)cc45)nc32)CC1 [Compound B78] | > 100 |
| COC(=O)[C@H](Cc1ccccc1)NC(=O)Cn1ccc2cnc(-c3c[nH]c4ncc(F)cc34)nc21 [Compound B8] | > 100 |
| CN(C)C(=O)Cn1ccc2cnc(-c3c[nH]c4ncc(F)cc34)nc21 [Compound B1] | 10 to 100 |
| CCCCCOCCOCCNC(=O)N1CCC[C@H](n2ccc3cnc(-c4c[nH]c5ncc(F)cc45)nc32)C1 [Compound B33] | 10 to 100 |
| C[C@@]1(C(=O)O)CCCC[C@@H]1n1cc(Cl)c2cnc(-c3c[nH]c4ncc(F)cc34)nc21 [Compound B83] | 1 to 10 |
| COC(=O)CNC(=O)CCn1ccc2c(-c3c[nH]c4ncc(F)cc34)ncnc21 [Compound A16] | > 100 |
| CN(C)C(=O)N[C@@H]1CCC[C@H](n2ccc3cnc(-c4c[nH]c5ncc(F)cc45)nc32)C1 [Compound B56] | 10 to 100 |
| CCOC(=O)[C@@H]1C2CCC(CC2)[C@H]1n1ccc2ccc(-c3c[nH]c4ncc(F)cc34)nc21 [Compound B199] | 10 to 100 |
| CN(C)C(=O)N[C@H]1C2CCC(CC2)[C@@H]1n1cc(Cl)c2cnc(-c3c[nH]c4ncc(F)cc34)nc21 [Compound B171] | 1 to 10 |
| CCOC(=O)[C@@H]1C2CCC(CC2)[C@H]1n1cc(CCCCC#N)c2cnc(-c3c[nH]c4ncc(F)cc34)nc21 [Compound B202] | > 100 |
| CC(C)(C)OC(=O)N[C@@H]1C2CCC(CC2)[C@H]1n1cc(Cl)c2cnc(-c3c[nH]c4ncc(F)cc34)nc21 [Compound B172] | > 100 |
| CN(C)C(=O)N[C@H]1CC[C@@H](n2ccc3cnc(-c4c[nH]c5ncc(F)cc45)nc32)CC1 [Compound B70] | 10 to 100 |
| Fc1cnc2[nH]cc(-c3ncc4c(F)cn(CC5CCCCN5)c4n3)c2c1 (stereo not drawn) [Compound B76] | 10 to 100 |
| CCOC(=O)[C@@H]1C2CCC(CC2)[C@H]1n1cc(CCCCSC)c2cnc(-c3c[nH]c4ncc(F)cc34)nc21 [Compound B201] | > 100 |
| CCOC(=O)[C@@H]1C2CCC(CC2)[C@H]1n1cc(C(F)(F)F)c2cnc(-c3c[nH]c4ncc(F)cc34)nc21 [Compound B177] | 10 to 100 |
| O=C(O)CN1CCc2cnc(-c3c[nH]c4ncc(F)cc34)nc21 [Compound B9] | > 100 |
| C[C@H](NC(=O)Cn1ccc2cnc(-c3c[nH]c4ncc(F)cc34)nc21)C(=O)O [Compound B11] | 10 to 100 |
| CNC(=O)[C@H]1C2CCC(CC2)[C@@H]1n1cc(Cl)c2cnc(-c3c[nH]c4ncc(F)cc34)nc21 [Compound B141] | 1 to 10 |
| O=C(O)[C@H]1C2CCC(CC2)[C@@H]1n1cc(F)c2cnc(-c3c[nH]c4ncc(F)cc34)nc21 [Compound B131] | < 1 |
| N#CCCCCc1cn([C@@H]2C3CCC(CC3)[C@H]2C(=O)O)c2nc(-c3c[nH]c4ncc(F)cc34)ncc12 [Compound B193] | < 1 |

| SMILES | IC50 [µM] |
| --- | --- |
| CCOC(=O)[C@]1(C)CCCC[C@H]1n1cc(F)c2cnc(-c3c[nH]c4ncc(F)cc34)nc21 [Compound B90] | > 100 |
| O=C(N[C@H]1CCC[C@@H](n2cc(F)c3cnc(-c4c[nH]c5ncc(Cl)cc45)nc32)C1)N1CCc2ccccc21 [Compound B102] | > 100 |
| CCOC(=O)[C@H]1C2CCC(CC2)[C@@H]1n1cc(C#CCCSC)c2cnc(-c3c[nH]c4ncc(F)cc34)nc21 [Compound B185] | > 100 |
| O=C(O)[C@@H]1CCCC[C@H]1n1ccc2cnc(-c3c[nH]c4ncc(F)cc34)nc21 (single isomer, unassigned) [Compound B24] | < 1 |
| CNC(=O)N[C@H]1CC[C@@H](n2ccc3cnc(-c4c[nH]c5ncc(F)cc45)nc32)CC1 [Compound B68] | 1 to 10 |
| CNC(=O)[C@@H]1CCCCC1n1cc(F)c2cnc(-c3c[nH]c4ncc(Cl)cc34)nc21 (stereo partly drawn) [Compound B94] | 10 to 100 |
| O=C(O)[C@H]1CCCN1C(=O)Cn1ccc2c(-c3c[nH]c4ncc(F)cc34)ncnc21 [Compound A9] | 10 to 100 |
| CCOCCOCCCCCN(C)C(=O)N[C@@H]1CCC[C@H](n2ccc3cnc(-c4c[nH]c5ncc(F)cc45)nc32)C1 [Compound B45] | 10 to 100 |
| O=C(O)[C@@H]1C2CCC(CC2)[C@H]1n1cc(-c2cccc(O)c2)c2cnc(-c3c[nH]c4ncc(F)cc34)nc21 [Compound B145] | < 1 |
| COC(=O)[C@@H]1C2CCC(CC2)[C@H]1n1ccc2ccc(-c3c[nH]c4ncc(Cl)cc34)cc21 [Compound B200] | 10 to 100 |
| CC(=O)N1CCC(Cn2cc(F)c3cnc(-c4c[nH]c5ncc(F)cc45)nc32)CC1 [Compound B58] | 10 to 100 |
| O=C(O)C1=CCCCC1n1cc(F)c2cnc(-c3c[nH]c4ncc(Cl)cc34)nc21 (stereo not drawn) [Compound B99] | < 1 |
| N[C@H]1C2CCC(CC2)[C@@H]1n1cc(Cl)c2cnc(-c3c[nH]c4ncc(F)cc34)nc21 [Compound B167] | 1 to 10 |
| O=C(O)[C@@H]1CCCC[C@H]1n1ccc2cnc(-c3c[nH]c4ncc(F)cc34)nc21 (racemic) [Compound B15] | 1 to 10 |
| O=C(O)[C@@H]1C2CCC(CC2)C1n1cc(Cl)c2cnc(-c3c[nH]c4ncc(Cl)cc34)nc21 (single isomer, unassigned) [Compound B137] | < 1 |
| CCOC(=O)[C@H]1C2CCC(CC2)[C@@H]1n1cc(Cl)c2cnc(-c3c[nH]c4ncc(F)cc34)nc21 [Compound B126] | > 100 |
| CCOC(=O)C1=CCCCC1n1cc(F)c2cnc(-c3c[nH]c4ncc(Cl)cc34)nc21 (stereo not drawn) [Compound B98] | > 100 |
| CN(C)C(=O)CN1CCc2cnc(-c3c[nH]c4ncc(F)cc34)nc21 [Compound B6] | 10 to 100 |
| COC(=O)CCn1cc(-c2c[nH]c3ncc(F)cc23)c2cncnc21 [Compound C3] | > 100 |
| CCOCCCCCOCCN(C)C(=O)N[C@@H]1CCC[C@H](n2ccc3cnc(-c4c[nH]c5ncc(F)cc45)nc32)C1 [Compound B41] | 10 to 100 |
| CCOC(=O)[C@@H]1C2CCC(CC2)[C@H]1n1cc(-c2ccsc2)c2cnc(-c3c[nH]c4ncc(F)cc34)nc21 [Compound B183] | 10 to 100 |
| CC(C)(C)OC(=O)NCCn1cc(-c2c[nH]c3ncc(F)cc23)c2cncnc21 [Compound C13] | > 100 |
| O=C(O)[C@@H]1C2CCC(CC2)[C@H]1n1cc(-c2ccncc2Cl)c2cnc(-c3c[nH]c4ncc(Cl)cc34)nc21 (relative stereo) [Compound B212] | 1 to 10 |

| SMILES | IC50 [µM] |
| --- | --- |
| O=C(O)[C@@H]1C2CCC(CC2)[C@H]1n1cc(-c2cn[nH]c2)c2cnc(-c3c[nH]c4ncc(F)cc34)nc21 [Compound B179] | < 1 |
| CCOC(=O)[C@H]1C2CCC(CC2)[C@@H]1n1cc(F)c2cnc(-c3c[nH]c4ncc(Cl)cc34)nc21 [Compound B134] | > 100 |
| CC(Cn1cc(-c2c[nH]c3ncc(F)cc23)c2cncnc21)C(=O)O (stereo not drawn) [Compound C7] | 10 to 100 |
| CCOC(=O)[C@@H]1C2CCC(CC2)[C@H]1n1cc(F)c2cnc(-c3c[nH]c4ncc(C(F)(F)F)cc34)nc21 [Compound B217] | > 100 |
| O=C(O)C1=C(n2cc(F)c3cnc(-c4c[nH]c5ncc(Cl)cc45)nc32)C2CCC1CC2 [Compound B213] | < 1 |
| O=C(O)[C@H]1C2CCC(CC2)[C@@H]1n1cc(Cl)c2cnc(-c3c[nH]c4ncc(Cl)cc34)nc21 [Compound B130] | 1 to 10 |
| C[C@@]1(C(=O)O)CCCC[C@H]1n1cc(Cl)c2cnc(-c3c[nH]c4ncc(F)cc34)nc21 [Compound B72] | < 1 |
| O=C(O)[C@@H]1C2CCC(CC2)[C@H]1n1cc(-c2ccsc2)c2cnc(-c3c[nH]c4ncc(F)cc34)nc21 [Compound B162] | < 1 |
| O=C(O)[C@H]1C2CCC(CC2)[C@@H]1n1ccc2cnc(-c3c[nH]c4ncc(F)cc34)nc21 [Compound B123] | 1 to 10 |
| COC(=O)C[C@H](NC(=O)Cn1ccc2c(-c3c[nH]c4ncc(F)cc34)ncnc21)C(=O)OC [Compound A12] | > 100 |
| CCOCCOCCOCCNC(=O)[C@@H]1CCCC[C@H]1n1ccc2cnc(-c3c[nH]c4ncc(F)cc34)nc21 [Compound B25] | 1 to 10 |
| CCOC(=O)[C@@H]1C2CCC(CC2)[C@H]1n1cc(Cl)c2cnc(-c3c[nH]c4ncc(C#N)cc34)nc21 [Compound B219] | > 100 |
| CNC(=O)N1CCCCC1Cn1cc(F)c2cnc(-c3c[nH]c4ncc(F)cc34)nc21 (stereo not drawn) [Compound B85] | 1 to 10 |
| CC(C)c1cn([C@@H]2C3CCC(CC3)[C@H]2C(=O)O)c2nc(-c3c[nH]c4ncc(F)cc34)ncc12 [Compound B175] | < 1 |
| CCCCCOCCCCCN(C)C(=O)N[C@@H]1CCC[C@H](n2ccc3cnc(-c4c[nH]c5ncc(F)cc45)nc32)C1 [Compound B44] | > 100 |
| O=C(O)[C@H]1C2CCC(CC2)[C@@H]1n1ccc2cnc(-c3c[nH]c4ncc(Cl)cc34)nc21 [Compound B124] | 1 to 10 |
| O=C(O)[C@@H]1C2CCC(CC2)[C@H]1n1cc(-c2ccccc2)c2cnc(-c3c[nH]c4ncc(F)cc34)nc21 [Compound B150] | 1 to 10 |
| CNC(=O)Cn1cc(-c2c[nH]c3ncc(F)cc23)c2cncnc21 [Compound C9] | 10 to 100 |
| O=C(O)[C@@H]1CCCC[C@H]1n1ccc2cnc(-c3c[nH]c4ncc(F)cc34)nc21 (single isomer, unassigned) [Compound B17] | < 1 |
| C[C@H](NC(=O)Cn1ccc2c(-c3c[nH]c4ncc(F)cc34)ncnc21)C(=O)O [Compound A7] | 10 to 100 |
| CCOCCCCCOCCNC(=O)N[C@@H]1CCC[C@H](n2ccc3cnc(-c4c[nH]c5ncc(F)cc45)nc32)C1 [Compound B38] | > 100 |
| CN(C)C(=O)N1CCC(Cn2cc(F)c3cnc(-c4c[nH]c5ncc(F)cc45)nc32)CC1 [Compound B63] | 10 to 100 |
| Fc1cnc2[nH]cc(-c3ncc4c(F)cn(CC5CCCNC5)c4n3)c2c1 (stereo not drawn) [Compound B60] | 10 to 100 |
